System: male diabetic ZDF rats
Assay: Oral glucose tolerance test (oGTT) in male diabetic ZDF rats
Format: in vivo, rat
Settings: for Plasma Glucose Mean: N = 6; for % Inhibition of Glucose Excursion: AUC reduction relative to vehicle control, ZDF rats
Method: Male ZDF rats were fasted for 18 h and randomly grouped (n=6) to receive a GPR119 agonist, (Compound 1), at 0.3, 3, 10, or 30 mg/kg (mg compound per kg body weight). The compound was delivered orally via a gavage needle (p.o., volume 4 mL/kg) 60 min prior to glucose bolus (3 g/kg) (time=−60 min in FIG. 1), with a separate group receiving vehicle (20% hydroxypropyl-beta-cyclodextrin) as control. At time 0 min the glucose bolus was administered. Levels of blood glucose were assessed using a glucometer (One-Touch Ultra™ LifeScan) at time −60 minute (prior to compound administration), at 0 min (at time when glucose bolus was given), and at 30, 60, 90, and 120 min post glucose bolus. Glucose excursion (AUC (area under the curve) reduction) in compound treated animals relative to vehicle control is shown in FIG. 2 and Table 2.

CN(C)C(=O)c1ccc(Nc2ncnc(N3CCC(c4nc(C(C)(C)F)no4)CC3)c2F)c(F)c1 [Compound 1, 3-fluoro-4-(5-fluoro-6-(4-(3-(2-fluoropropan-2-yl)-1,2,4-oxadiazol-5-yl)piperidin-1-yl)pyrimidin-4-ylamino)-N,N-dimethylbenzamide]
Plasma Glucose Mean (0.3 mg/kg p.o. 60 min prior to glucose bolus, time 0 min): 89.7 mg/dL | Plasma Glucose Mean (0.3 mg/kg p.o., 30 min post glucose bolus): 201.7 mg/dL | Plasma Glucose Mean (0.3 mg/kg p.o., 60 min post glucose bolus): 192.2 mg/dL | Plasma Glucose Mean (0.3 mg/kg p.o., 90 min post glucose bolus): 185.3 mg/dL | Plasma Glucose Mean (0.3 mg/kg p.o., 120 min post glucose bolus): 154.8 mg/dL | % Inhibition of Glucose Excursion (0.3 mg/kg p.o.): 6.5% | Plasma Glucose Mean (0.3 mg/kg p.o., time -60 min (prior to compound administration)): 106.3 mg/dL | Plasma Glucose Mean (3.0 mg/kg p.o. 60 min prior to glucose bolus, time 0 min): 82.7 mg/dL | Plasma Glucose Mean (3.0 mg/kg p.o., 30 min post glucose bolus): 184.5 mg/dL | Plasma Glucose Mean (3.0 mg/kg p.o., 60 min post glucose bolus): 144.2 mg/dL | Plasma Glucose Mean (3.0 mg/kg p.o., 90 min post glucose bolus): 151.2 mg/dL | Plasma Glucose Mean (3.0 mg/kg p.o., 120 min post glucose bolus): 146.2 mg/dL | % Inhibition of Glucose Excursion (3 mg/kg p.o.): 47.0% | Plasma Glucose Mean (3.0 mg/kg p.o., time -60 min (prior to compound administration)): 110.0 mg/dL | Plasma Glucose Mean (10.0 mg/kg p.o. 60 min prior to glucose bolus, time 0 min): 76.0 mg/dL | Plasma Glucose Mean (10.0 mg/kg p.o., 30 min post glucose bolus): 174.0 mg/dL | Plasma Glucose Mean (10.0 mg/kg p.o., 60 min post glucose bolus): 135.8 mg/dL | Plasma Glucose Mean (10.0 mg/kg p.o., 90 min post glucose bolus): 141.3 mg/dL | Plasma Glucose Mean (10.0 mg/kg p.o., 120 min post glucose bolus): 132.5 mg/dL | % Inhibition of Glucose Excursion (10 mg/kg p.o.): 60.1% | Plasma Glucose Mean (10.0 mg/kg p.o., time -60 min (prior to compound administration)): 108.7 mg/dL | Plasma Glucose Mean (30.0 mg/kg p.o. 60 min prior to glucose bolus, time 0 min): 93.0 mg/dL | Plasma Glucose Mean (30.0 mg/kg p.o., 30 min post glucose bolus): 197.0 mg/dL | Plasma Glucose Mean (30.0 mg/kg p.o., 60 min post glucose bolus): 124.8 mg/dL | Plasma Glucose Mean (30.0 mg/kg p.o., 90 min post glucose bolus): 135.8 mg/dL | Plasma Glucose Mean (30.0 mg/kg p.o., 120 min post glucose bolus): 130.2 mg/dL | % Inhibition of Glucose Excursion (30 mg/kg p.o.): 52.1% | Plasma Glucose Mean (30.0 mg/kg p.o., time -60 min (prior to compound administration)): 104.8 mg/dL | Effect on blood glucose after a challenge with glucose (diabetic ZDF rats, 0.3-30 mg/kg p.o.): lowered blood glucose

— US10894787B2, “Modulators of the GPR119 receptor and the treatment of disorders related thereto” (Arena Pharmaceuticals, Inc., priority 2010, dated 2021)
